Consider two molecules from patent publication US20240294467A1, “USP9X Inhibitors” (ProDeg, LLC, priority 2021, published 2024).

One assay addresses CYLD (Homo sapiens (Human), UniProt Q9NQC7). The experiment in a line: DUB selectivity panel using ubiquitin-AMC. The format is biochemical. To be noted: 5 μM compound, 500 nM Ubiquitin-AMC. An excerpt:
(§1) Compounds were screened for DUB inhibitory and apoptotic activity against other deubiquitylases in a DUB selectivity panel using ubiquitin-AMC (BPS Bioscience Inc.).

The next assay addresses USP13 (Homo sapiens (Human), UniProt Q92995). The experiment in a line: DUB selectivity panel using ubiquitin-AMC. The format is biochemical. Conditions: 5 μM compound, 500 nM Ubiquitin-AMC.
Source text: as §1

A further assay deals with USP15 (Homo sapiens (Human), UniProt Q9Y4E8). Kind of assay: DUB selectivity panel using ubiquitin-AMC. The format is biochemical. Conditions: 5 μM compound, 500 nM Ubiquitin-AMC.
Chain of USP15 (Q9Y4E8 whole entry): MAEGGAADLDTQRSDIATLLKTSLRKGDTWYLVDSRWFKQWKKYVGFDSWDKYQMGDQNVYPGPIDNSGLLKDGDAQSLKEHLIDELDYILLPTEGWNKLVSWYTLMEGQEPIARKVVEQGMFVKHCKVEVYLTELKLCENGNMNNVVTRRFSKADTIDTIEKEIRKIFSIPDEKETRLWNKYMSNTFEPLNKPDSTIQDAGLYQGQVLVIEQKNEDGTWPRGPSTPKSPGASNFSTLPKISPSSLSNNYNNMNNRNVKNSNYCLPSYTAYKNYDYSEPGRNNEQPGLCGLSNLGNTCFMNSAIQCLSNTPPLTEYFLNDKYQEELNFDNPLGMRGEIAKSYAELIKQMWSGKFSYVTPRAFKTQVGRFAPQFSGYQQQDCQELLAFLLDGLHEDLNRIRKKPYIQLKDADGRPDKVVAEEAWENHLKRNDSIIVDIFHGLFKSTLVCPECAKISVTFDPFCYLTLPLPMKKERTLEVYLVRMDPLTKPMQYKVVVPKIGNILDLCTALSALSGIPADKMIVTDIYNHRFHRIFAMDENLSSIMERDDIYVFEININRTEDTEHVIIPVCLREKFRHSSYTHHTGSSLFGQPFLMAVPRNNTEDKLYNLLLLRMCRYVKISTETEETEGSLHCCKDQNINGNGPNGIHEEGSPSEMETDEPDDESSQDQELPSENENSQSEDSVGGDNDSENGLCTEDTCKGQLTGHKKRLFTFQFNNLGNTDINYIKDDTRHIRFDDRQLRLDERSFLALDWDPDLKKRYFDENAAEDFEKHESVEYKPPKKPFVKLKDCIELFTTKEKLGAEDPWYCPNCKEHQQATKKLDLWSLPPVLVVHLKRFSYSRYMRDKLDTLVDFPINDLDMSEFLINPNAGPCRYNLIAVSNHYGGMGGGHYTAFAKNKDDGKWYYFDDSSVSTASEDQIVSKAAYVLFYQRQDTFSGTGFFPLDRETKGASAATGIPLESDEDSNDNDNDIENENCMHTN
Source text: as §1

For another assay, the target named is VCPIP (Homo sapiens (Human), UniProt Q96JH7). The experiment in a line: DUB selectivity panel using ubiquitin-AMC. It counts as biochemical. To be noted: 5 μM compound, 500 nM Ubiquitin-AMC.
Chain of VCPIP (Q96JH7 whole entry): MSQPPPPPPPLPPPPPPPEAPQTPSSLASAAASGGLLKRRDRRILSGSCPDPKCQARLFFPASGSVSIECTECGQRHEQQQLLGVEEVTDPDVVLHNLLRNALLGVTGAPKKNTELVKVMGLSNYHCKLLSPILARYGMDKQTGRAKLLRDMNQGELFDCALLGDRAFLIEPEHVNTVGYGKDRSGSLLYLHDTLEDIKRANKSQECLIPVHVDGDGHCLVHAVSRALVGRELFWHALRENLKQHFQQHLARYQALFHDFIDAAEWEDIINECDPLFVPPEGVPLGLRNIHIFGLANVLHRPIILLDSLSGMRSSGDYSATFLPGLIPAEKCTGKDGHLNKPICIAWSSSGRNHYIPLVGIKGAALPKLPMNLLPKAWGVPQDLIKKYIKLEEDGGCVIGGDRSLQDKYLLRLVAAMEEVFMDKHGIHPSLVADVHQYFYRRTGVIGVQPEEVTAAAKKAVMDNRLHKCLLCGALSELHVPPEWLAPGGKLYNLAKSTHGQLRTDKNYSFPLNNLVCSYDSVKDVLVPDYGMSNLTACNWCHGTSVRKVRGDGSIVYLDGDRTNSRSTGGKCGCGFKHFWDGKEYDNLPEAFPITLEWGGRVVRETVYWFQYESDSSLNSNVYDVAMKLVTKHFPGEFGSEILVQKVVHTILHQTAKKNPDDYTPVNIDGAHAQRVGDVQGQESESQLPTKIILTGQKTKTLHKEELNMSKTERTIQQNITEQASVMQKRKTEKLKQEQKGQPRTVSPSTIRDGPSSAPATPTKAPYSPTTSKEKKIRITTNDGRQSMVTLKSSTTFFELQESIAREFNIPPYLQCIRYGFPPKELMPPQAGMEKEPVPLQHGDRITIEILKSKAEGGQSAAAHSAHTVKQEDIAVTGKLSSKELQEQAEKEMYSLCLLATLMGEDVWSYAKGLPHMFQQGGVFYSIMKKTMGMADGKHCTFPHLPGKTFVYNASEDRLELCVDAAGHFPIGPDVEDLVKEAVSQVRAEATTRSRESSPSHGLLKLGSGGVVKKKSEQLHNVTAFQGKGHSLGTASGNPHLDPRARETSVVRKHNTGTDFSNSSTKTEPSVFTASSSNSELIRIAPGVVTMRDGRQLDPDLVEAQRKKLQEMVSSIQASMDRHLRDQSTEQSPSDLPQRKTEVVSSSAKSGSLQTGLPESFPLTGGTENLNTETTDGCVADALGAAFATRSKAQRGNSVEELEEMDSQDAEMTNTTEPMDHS
Source text: as §1

Another assay relates to 66 cancer cell lines. Kind of assay: ONCOLINES Profiler, whole panel. The format is cell-based. The text has this:
The sensitivities of multiple cancer cells can be determined by screening the compounds on a cancer cell line panel, such as an ONCOLINES™ Profiler (Netherlands Translational Research Center) assayed with various tumor cell lines. For more information on ONCOLINES™ methods, see https://www.oncolines.com/oncolines/oncolines-explained-facts/. […] For example, Compound 7A inhibited the proliferation of 57 of the 66 cell lines being tested. […] “A tumor cell line sensitive to the compounds” is referred to that the proliferation of a tumor cell line, when contacted with the compounds, is inhibited by at least 50%, at least 60%, at least 70%, at least 80%, at least 85%, at least 90%, at least 91%, at least 92%, at least 93%, at least 94%, at least 95%, at least 96%, at least 97%, at least 98%, at least 99%, or 100%.
(§2) The compounds were profiled on an ONCOLINES™ Profiler (Netherlands Translational Research Center) assayed with 66 cancer cell lines to determine if they were capable of inhibiting the proliferation of these cancer cells.
To further evaluate potency of the compounds, they were compared with the USP9X inhibitor WP 1130 by screening both the compounds and WP1130 on a 66-cancer cell line panel ONCOLINES™ Profiler.

The test system of another assay is A-204. Kind of assay: ONCOLINES Profiler proliferation. Conditions: Homo sapiens, A204; A-204, rhabdomyosarcoma. It counts as cell-based.
Source text: as §2

A further assay deals with A375. Kind of assay: ONCOLINES Profiler proliferation. It counts as cell-based. To be noted: Homo sapiens, A-375; A375, malignant melanoma.
Source text: as §2

In another assay the test system is A388. Kind of assay: ONCOLINES Profiler proliferation. The format is cell-based. Conditions: A388, epidermal carcinoma.
Source text: as §2

Another assay relates to AN3 CA. Kind of assay: ONCOLINES Profiler proliferation. The format is cell-based. Conditions: Homo sapiens, endometrium adenocarcinoma.
Source text: as §2

For a further assay, the system named is Daoy. The experiment in a line: ONCOLINES Profiler proliferation. The format is cell-based. To be noted: Homo sapiens, medulloblastoma.
Source text: as §2

The test system of another assay is DoTc2 4510. Kind of assay: ONCOLINES Profiler proliferation. Conditions: Homo sapiens; DoTc2 4510, cervix carcinoma. The format is cell-based.
Source text: as §2

The test system of a further assay is HCT-116. Kind of assay: ONCOLINES Profiler proliferation. Conditions: Homo sapiens; HCT-116, colon carcinoma. The format is cell-based.
Source text: as §2

In the next assay the test system is Jurkat E6.1. The experiment in a line: ONCOLINES Profiler proliferation. The format is cell-based. To be noted: Homo sapiens; Jurkat E6.1, T cell leukemia.
Source text: as §2

Another assay relates to K-562. Kind of assay: ONCOLINES Profiler proliferation. The format is cell-based. To be noted: Homo sapiens, K562; K-562, CML.
Source text: as §2

In another assay the test system is MIA PaCa-2. Kind of assay: ONCOLINES Profiler proliferation. Conditions: Homo sapiens; MIA PaCa-2, pancreatic ductal carcinoma. It counts as cell-based.
Source text: as §2

A further assay has as its system NCI-H460. Kind of assay: ONCOLINES Profiler proliferation. It counts as cell-based. Conditions: Homo sapiens; NCI-H460, large cell lung carcinoma.
Source text: as §2

Another assay concerns OVCAR-3. The experiment in a line: ONCOLINES Profiler proliferation. It counts as cell-based. Conditions: Homo sapiens; OVCAR-3, ovary adenocarcinoma.
Source text: as §2

In a further assay the test system is PA-1. The experiment in a line: ONCOLINES Profiler proliferation. It counts as cell-based. To be noted: Homo sapiens; PA-1, ovary teratocarcinoma.
Source text: as §2

In the next assay the test system is SK-N-AS. Kind of assay: ONCOLINES Profiler proliferation. The format is cell-based. To be noted: Homo sapiens, neuroblastoma.
Source text: as §2

The next assay concerns SR. The experiment in a line: ONCOLINES Profiler proliferation. To be noted: Homo sapiens, large cell immunoblastic lymphoma. It counts as cell-based.
Source text: as §2

The test system of a further assay is SUP-T1. The experiment in a line: ONCOLINES Profiler proliferation. It counts as cell-based. To be noted: Homo sapiens; SUP-T1, T-cell lymphoblastic lymphoma.
Source text: as §2

In the next assay the test system is VA-ES-BJ. The experiment in a line: ONCOLINES Profiler proliferation. It counts as cell-based. To be noted: epithelioid carcinoma, bone.
Source text: as §2

Assay [1] relates to malignant melanoma cell line MWo. The experiment in a line: ONCOLINES Profiler proliferation. It counts as cell-based.
Source text: as §2

A further assay deals with Mcl-1. The experiment in a line: Capture ELISA of Mcl-1 and ubiquitylated Mcl-1 in MIA-PaCa-2 cells. The format is cell-based, human. Conditions: 24 hours. Here is the method: MIA-PaCa-2 cells were treated with Compound 7A at 25 μM, 12.5 μM, 6.25 μM, and 3.125 μM, respectively, for 24 hours. Capture ELISA of Mcl-1 was performed using a dilution series of MIA-PaCa-2 cell lysates equalized for total protein in a 96-well plate coated with sheep anti-human Mcl-1 (R&D Systems, #AF8281). Detection of Mcl-1 was performed using biotinylated sheep anti-human Mcl-1 followed by streptavidin-horseradish peroxidase and TMB development. For detection of ubiquitylated Mcl-1 the same capture conditions were used but employing a biotinylated mouse anti-human ubiquitin antibody (R&D Systems, #MAB701), again detecting with streptavidin-horseradish peroxidase and TMB development. Lysate samples were run in triplicate and percentages were calculated based on the signal generated from cell lysates with no compound added (vehicle control samples). […] With 12.5 μM Compound 7A, Mcl-1 declined by about 25.0% whereas ubiquitylated Mcl-1 increased by about 14.0%.
On the technique in general: ELISA stands for enzyme-linked immunosorbent assay.

pIC50: −log10 of the molar value.

Chain of CYLD (Q9NQC7 whole entry): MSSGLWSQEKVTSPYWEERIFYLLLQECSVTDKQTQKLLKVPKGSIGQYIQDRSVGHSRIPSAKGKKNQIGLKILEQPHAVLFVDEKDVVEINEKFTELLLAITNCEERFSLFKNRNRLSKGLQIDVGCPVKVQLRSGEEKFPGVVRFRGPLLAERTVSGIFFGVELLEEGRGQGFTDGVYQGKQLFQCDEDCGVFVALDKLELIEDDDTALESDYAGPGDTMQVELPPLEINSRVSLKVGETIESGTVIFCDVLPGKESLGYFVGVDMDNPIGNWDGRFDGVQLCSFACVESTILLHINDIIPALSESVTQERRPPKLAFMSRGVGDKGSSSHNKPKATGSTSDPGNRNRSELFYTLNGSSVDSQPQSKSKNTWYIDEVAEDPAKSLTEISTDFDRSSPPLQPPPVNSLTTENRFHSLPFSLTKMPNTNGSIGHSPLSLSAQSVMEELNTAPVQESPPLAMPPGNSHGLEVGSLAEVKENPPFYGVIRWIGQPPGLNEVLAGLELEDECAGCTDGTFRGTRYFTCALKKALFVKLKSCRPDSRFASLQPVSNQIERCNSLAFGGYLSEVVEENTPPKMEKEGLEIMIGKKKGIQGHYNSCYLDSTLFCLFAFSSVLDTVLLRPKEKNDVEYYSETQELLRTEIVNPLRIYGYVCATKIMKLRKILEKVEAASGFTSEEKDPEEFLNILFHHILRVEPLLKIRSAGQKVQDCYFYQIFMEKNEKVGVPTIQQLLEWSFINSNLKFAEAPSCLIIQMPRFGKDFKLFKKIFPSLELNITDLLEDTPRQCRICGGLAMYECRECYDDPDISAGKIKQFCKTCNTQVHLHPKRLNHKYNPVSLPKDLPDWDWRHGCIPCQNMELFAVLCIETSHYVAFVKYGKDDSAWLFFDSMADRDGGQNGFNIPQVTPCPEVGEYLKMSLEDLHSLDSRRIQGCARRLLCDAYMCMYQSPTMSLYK
Chain of USP13 (Q92995 whole entry): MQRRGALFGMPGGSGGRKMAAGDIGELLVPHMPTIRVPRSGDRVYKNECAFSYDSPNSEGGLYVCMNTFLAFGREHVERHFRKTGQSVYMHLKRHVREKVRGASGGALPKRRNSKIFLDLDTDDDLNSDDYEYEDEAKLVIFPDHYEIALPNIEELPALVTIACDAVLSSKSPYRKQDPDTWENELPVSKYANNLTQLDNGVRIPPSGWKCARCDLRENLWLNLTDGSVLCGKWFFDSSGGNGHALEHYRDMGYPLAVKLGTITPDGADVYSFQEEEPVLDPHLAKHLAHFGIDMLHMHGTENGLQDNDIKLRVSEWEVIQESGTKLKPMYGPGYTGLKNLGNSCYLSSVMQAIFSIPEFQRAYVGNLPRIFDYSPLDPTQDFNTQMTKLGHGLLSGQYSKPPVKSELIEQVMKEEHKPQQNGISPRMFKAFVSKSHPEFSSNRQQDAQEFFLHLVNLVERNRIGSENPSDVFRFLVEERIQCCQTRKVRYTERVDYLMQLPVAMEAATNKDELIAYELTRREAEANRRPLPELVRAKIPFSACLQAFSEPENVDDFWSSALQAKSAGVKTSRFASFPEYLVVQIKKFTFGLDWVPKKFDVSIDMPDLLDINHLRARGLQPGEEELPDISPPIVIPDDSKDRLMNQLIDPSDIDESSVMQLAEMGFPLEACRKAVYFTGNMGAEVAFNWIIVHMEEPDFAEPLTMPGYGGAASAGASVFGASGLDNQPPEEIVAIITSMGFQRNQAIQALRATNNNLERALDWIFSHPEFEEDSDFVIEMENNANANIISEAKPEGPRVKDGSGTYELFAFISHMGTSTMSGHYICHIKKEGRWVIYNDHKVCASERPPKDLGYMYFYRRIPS

A word on the inhibition: it is the change of the read-out against control, counted positive when it falls. High values mean a response far below the control, low ones a response near the control. As to `CN1CCOc2ccc(cc2)C(=O)NCc2cccc(c2)C(=O)N[C@@H](CC(C)(C)C)C(=O)Nc2ccc(cc2)CCN(C)C(=O)CC(C)(C)CC1=O` [Compound 5A], the inhibition at 5 µM against CYLD was 0%; on USP13, 0%; against USP15, below 2%; at VCPIP it was below 3%. Further, the “inhibition of CYLD” value at CYLD was “no detectable effect”. Further, the “inhibition of USP13” value against USP13 is listed as “no detectable effect”.
As a reminder, the pIC50 is the negative decadic logarithm of the IC50, by convention in mol/L. A high value points to a low IC50. Consider `CN1CCOc2ccc(cc2)C(=O)NCc2ccc(F)c(c2)C(=O)N[C@@H](CC(C)(C)C)C(=O)Nc2ccc(cc2)CCN(C)C(=O)CC(C)(C)CC1=O` [Compound 7A], for which the “cancer cell lines sensitive / proliferation inhibited, of 66” value in the assay with 66 cancer cell lines (66 cell lines tested) is recorded as 57. In the assay with 66 cancer cell lines (in 3 of 66 cell lines, high Bcl-xL), the outcome was inactive. Moreover, in the assay with 66 cancer cell lines (in 12 of 66 cell lines), the “fold more potent than WP 1130” value is listed as “about 4 fold”. Besides, the pIC50 with A-204 is 5.87; in the assay on A375, 5.70; in the assay with A388 it was 5.62; in the assay with AN3 CA, 6.18; with Daoy it was 5.47; with DoTc2 4510 it was 6.02. In addition, the pIC50 was 5.62 with HCT-116; 6.26 with Jurkat E6.1; 6.31 with K-562; 6.10 with MIA PaCa-2; 5.68 in the assay with NCI-H460; 5.62 in the assay with OVCAR-3. Also, the pIC50 in the assay with PA-1 is 5.68; with SK-N-AS, 5.76; in the assay on SR, 5.80; in the assay with SUP-T1, 5.37; in the assay with VA-ES-BJ it was 6.17; in assay [1], below 4.49. Also, the Mcl-1 decline entry is listed as “about 25.0%” in the assay on Mcl-1 (12.5 μM) and “about 23.0%” in the assay on Mcl-1 (25 μM). In addition, the “ubiquitylated Mcl-1 increase” value with Mcl-1 (12.5 μM) is on record as “about 14.0%”; with Mcl-1 (25 μM), “about 27.5%”.
